Data as given in article PMC7423395, “Male-predominant galanin mediates androgen-dependent aggressive chases in medaka” (eLife, 2020).

Assays:
Assay type in all cases: in vivo, medaka (Oryzias latipes)
[1] = test system: gal-expressing neurons in brain nuclei; test: Number of gal-expressing neurons by in situ hybridization in gonadectomized, sex steroid-treated fish; conditions: 100 ng/ml by immersion for 6 days, n = 5 per group; for ovariectomy-induced increase in the number of gal-expressing neurons in pPMp, effect of steroid treatment: ovariectomized adult females
Text: (§1) For both male and female fish, the gonad was removed under tricaine methane sulfonate anesthesia (0.02%) (Sigma-Aldrich, St. Louis, MO) through a small incision made in the ventrolateral abdominal wall. Immediately after removal of the gonad, the incision was sutured with nylon thread. Sham-operated fish received the same surgical treatment as gonadectomized fish, except for removal of the gonad. After a recovery period of 3 days in saline (0.9% (w/v) NaCl), gonadectomized fish were immersed in water containing 100 ng/ml of KT (Cosmo Bio, Tokyo, Japan) or E2 (Fujifilm Wako Pure Chemical Corporation), or vehicle (ethanol) alone for 6 days and then sampled. Sham-operated fish were treated with vehicle alone and used as controls. In another experiment, females of gal knockout lines with intact ovaries were treated with 100 ng/ml of KT by immersion in water for 10 days and then sampled. The sex steroid concentration used was based on previously reported serum steroid levels in medaka ([Foran et al., 2002]; [Foran et al., 2004]; [Tilton et al., 2003]).
The procedure for single-label in situ hybridization has been described previously ([Hiraki et al., 2012]). In brief, whole brains were fixed in 4% paraformaldehyde (PFA) and embedded in paraffin. Serial coronal sections of 10 μm thickness were cut and hybridized with the DIG-labeled galr1 or galr2 probe or the same DIG-labeled gal probe used for Northern blot analysis. Hybridization signals were visualized by using alkaline phosphatase-conjugated anti-DIG antibody and 5-bromo-4-chloro-3-indolyl phosphate/nitro blue tetrazolium (BCIP/NBT) substrate (Roche Diagnostics). Color development was allowed to proceed for more than 5 hr, or was stopped after 15 min (for quantification of gal expression in males that were castrated and treated with sex steroids) or 1 hr (for quantification of gal expression in females that were ovariectomized and treated with sex steroids) to avoid saturation. All sections in each comparison were processed simultaneously under the same conditions. For galr1, for which hybridization signals were detected throughout the brain and thus the specificity of the staining was somewhat uncertain, in situ hybridization was also performed using a sense probe under conditions identical to those used for the antisense probe. No signal was obtained by the sense probe, confirming that the signals obtained by the antisense probe represented specific staining.
To obtain quantitative data, the number of gal-expressing neurons in each brain nucleus was counted manually. […] In this case, the total number of the neurons in the nuclei was counted. Only intensively labeled neurons with a clearly defined cell body were counted to reduce, if not eliminate, the likelihood of double counting of the neurons split between sections. […]

[2] = test system: gal expression in the whole brain; test: Whole-brain gal expression by real-time PCR in gonadectomized, sex steroid-treated fish; conditions: castrated adult males, 100 ng/ml by immersion in water for 6 days, normalized to actb, versus castrated vehicle
Text: as §1, with “In another experiment, females of gal knockout lines with intact ovaries were treated with 100 ng/ml of KT by immersion in water for 10 days and then sampled. The sex steroid concentration used was based on previously reported serum steroid levels in medaka ([Foran et al., 2002]; [Foran et al., 2004]; [Tilton et al., 2003]).” left out
In cases where there were fewer than seven data points per experimental group, individual data points were plotted with the mean ± standard error of the mean (SEM); in cases where there were seven or more data points per experimental group, data were plotted as box and whisker plots by the Tukey method for clarity. In real-time PCR analysis, the expression level of gal (normalized to that of actb) in female whole brain was arbitrarily set to 1, and the relative difference was calculated in each data set to facilitate comparisons among data sets.

adult female medaka = test: Aggressive behavior test of KT-treated females; conditions: 100 ng/ml KT by immersion for 10 days, main effect of androgen treatment
Text: For both male and female fish, the gonad was removed under tricaine methane sulfonate anesthesia (0.02%) (Sigma-Aldrich, St. Louis, MO) through a small incision made in the ventrolateral abdominal wall. Immediately after removal of the gonad, the incision was sutured with nylon thread. Sham-operated fish received the same surgical treatment as gonadectomized fish, except for removal of the gonad. After a recovery period of 3 days in saline (0.9% (w/v) NaCl), gonadectomized fish were immersed in water containing 100 ng/ml of KT (Cosmo Bio, Tokyo, Japan) or E2 (Fujifilm Wako Pure Chemical Corporation), or vehicle (ethanol) alone for 6 days and then sampled. […]
All behavioral procedures were conducted in 2-l rectangular tanks contained within a large recirculating water system with a constant influx of dechlorinated tap water. […] The partitions were then removed, and the fish were allowed to interact for 20 min while their behavior was recorded as described above. […]
In each test, wild-type, heterozygous, and homozygous siblings reared under the same conditions were used as the comparison group. The total number of each aggressive act (chase, fin display, circle, strike, and bite) performed by the four fish in the tank was counted manually from the video recordings. In addition, the total number of chases by the four fish in the tank was calculated for each 5 min interval during the test period. […]

Compound | number of gal-expressing neurons in aPMp/pPPa ([1]; castrated adult males) | ovariectomy-induced increase in the number of gal-expressing neurons in pPMp, effect of steroid treatment [1] | number of gal-expressing neurons in pPMp reduced by castration, effect of steroid treatment ([1]; castrated adult males) | level of brain gal expression reduced by castration, effect of steroid treatment [2] | number of bites (adult female medaka; adult females of gal knockout lines Δ2 and Δ10, 20 min test) | number of chases (adult female medaka; adult females of gal knockout lines Δ2 and Δ10 with intact ovaries, four fish per tank, 20 min, n = 6 per group)
C[C@]12CC[C@@H]3c4ccc(O)cc4CC[C@H]3[C@@H]1CC[C@@H]2O [E2, estradiol-17β] | increased | significantly attenuated | – | – | – | –
C[C@]12CC(=O)[C@H]3[C@@H](CCC4=CC(=O)CC[C@@]43C)[C@@H]1CC[C@@H]2O [KT, 11-ketotestosterone] | – | further enhanced | restored by KT treatment | restored by treatment with KT | significantly increased | significantly increased
